Assay results as given in patent publication US20110045076A1, “LINEAR ORDER RELEASE POLYMER” (priority 2008, published 2011).
In brackets after ≈: the same amount, converted by molar mass.

Assay: Solubility study of dapivirine
Assay type: physicochemical
Conditions: for solubility: 37 °C, aqueous with cosolvent or surfactant or cyclodextrin, thermodynamic from solid; for Time to reach saturation: 37° C.
Method: HPLC quantification of dapivirine was conducted as follows. The HPLC system (Agilent 1050) consisted of a solvent module, quaternary pump module and a variable wavelength UV detector. For analysis of release and solubility study samples, an alkyl amide column (Supelcosil™ ABZ+Plus 3 μm, 3.3 cm×4.6 mm ID, Supelco, Bellefonte, Pa.) was used with a gradient of 50:50 acetonitrile and water to 100% acetonitrile (both containing 0.1% v/v trifluoroacetic acid, TFA) in 4 minutes at a flow rate of 1 mL/min. The retention time of dapivirine was 1.1 min. A linear calibration curve of dapivirine was obtained in the range of 1-100 ng/injection (r^2>0.99) at the detection wavelength of 286 nm. The quantification limit of HPLC for dapivirine was 0.65 ng/injection (corresponds to 2 μl of a 1 μM solution) with a signal to noise ratio greater than 10. A longer method was developed for the stability study; a C-18 column (Hypersil BDS-C18, 10 cm×4.0 mm ID, […], Thermo Electron Corporation, Waltham, Mass.) was used with acetonitrile (A) and water (B) both containing 0.1% v/v TFA as eluent at a flow rate of 1 mL/min. A gradient of 30:70 A:B to 70:30 A:B was applied in 7 minutes with retention time of dapivirine at 5.7 minutes. The HPLC method was modified for LC/MS analysis: the flow rate was reduced to 0.5 mL/min; a gradient of 30:70 A:B to 70:30 A:B in 14 minutes; the TFA concentration in the eluents was 0.05% v/v and the retention time for dapivirine was 10.5 minutes.
Solubility studies of dapivirine were conducted to determine the appropriate sink conditions for the in vitro release studies. Dapivirine is a hydrophobic molecule; therefore a co-solvent system that can provide sink conditions (solubility greater than 3 times the maximum concentration achieved in the release medium) during dapivirine release study was needed. Since a co-solvent system consisting of 50:50 v/v i-prOH:water has been utilized previously for long-term release studies of dapivirine from silicone rings^11,18, the solubility of dapivirine was determined in 50:50 and 25:75 v/v i-prOH:water solutions. Additionally, solubility of dapivirine in liposome dispersions was evaluated in an attempt to utilize them as biorelevant sink conditions.^14,21 The liposome dispersions of 10 mg/mL in 25 mM pH 4.2 acetate buffer (osmolarity adjusted to 310 mOsm/kg with NaCl) and 25 mM pH 7.6 phosphate buffer (osmolarity adjusted to 310 mOsm/kg with NaCl) were utilized. (See in vitro release studies in Example 4 for preparation of liposome dispersions.) Dapivirine (10 mg) was dispersed in test solutions (2 mL) and shaken at 37° C. at 200 rpm. Aliquots of 200 μL were withdrawn at 24 h, 48 h and 72 h. At each time point, the aliquots were centrifuged immediately for 2 minutes at 16000 g, 100 μL of the supernatant was diluted 1:10 using 100% isopropanol and quantified by HPLC. The solubility was determined by a calibration curve generated from known concentrations of dapivirine solutions in i-prOH.

solubility (10 mg/mL liposome dispersion in pH 4.2 acetate buffer, 10 mg/mL pH 4.2 liposome dispersion): 844 µM (≈ 278 µg/mL)
solubility (10 mg/mL liposome dispersion in pH 7.6 phosphate buffer, 10 mg/mL pH 7.6 liposome dispersion): 165 µM (≈ 54.4 µg/mL)
Time to reach saturation (10 mg/mL pH 4.2 liposome dispersion): 48 h
Time to reach saturation (10 mg/mL pH 7.6 liposome dispersion): 48 h
Time to reach saturation (25:75 i-prOH:water): 48 h
dapivirine solubility (25:75 v/v i-prOH:water solution): 93 μM/L
solubility (25:75 v/v i-prOH:water, 25:75 i-prOH:water): 93 µM (≈ 30.6 µg/mL)
Time to reach saturation (50:50 i-prOH:water): 24 h
solubility (50:50 v/v i-prOH:water, 50:50 i-prOH:water): 3310 µM (≈ 1090 µg/mL)
SMILES: Cc1cc(C)c(Nc2ccnc(Nc3ccc(C#N)cc3)n2)c(C)c1 [dapivirine, 4-[[4-[(2,4,6-trimethylphenyl)amino]pyrimidin-2-yl]amino]benzonitrile]
